# Tested on: Rat Bleomycin Model
# Assay: Rat bleomycin model of lung fibrosis: histological analysis of interstitial collagen deposition (Picrosirius red stain)
# Format: in vivo
# Settings: co-administration with bleomycin, relative area and intensity of interstitial collagen (manual score), FIG. 1
# Method: Appl. Pharmacol. (1992)116:30-7). Another well-established model for lung fibrosis is the rat bleomycin model published by E. White et al, Am J Respir Crit Care Med. 2006, 173: 112-121.
# A histological analysis of levels of collagen deposition in the lung interstitium, as determined using Picrosirius red stain, for bleomycin alone as well as combinations of bleomycin and several other compounds, including AMN107, was performed. As depicted in FIG. 1 showing the levels of interstitial collagen in lung tissue as determined histologically using Picrosirius red stain (statistical analysis: Man Whitney rank sum test), co-administration of AMN107 can reduce the effect of bleomycin by more than 50%.
smiles,measurement,value
"Cc1cn(-c2cc(NC(=O)c3ccc(C)c(Nc4nccc(-c5cccnc5)n4)c3)cc(C(F)(F)F)c2)cn1 [AMN107, 4-methyl-3-[[4-(3-pyridinyl)-2-pyrimidinyl]amino]-N-[5-(4-methyl-1H-imidazol-1-yl)-3-(trifluoromethyl)phenyl]benzamide]",reduction of the effect of bleomycin on levels of interstitial collagen in lung tissue,more than 50%
